Results from patent EP0133934A2, “Pharmacologically active 1,3,4-thiadiazol-(3,2-a)-thieno-(2,3-d)-pyrimidin-5-(H)one derivatives” (NIKEPHARMA S.r.l., priority 1983, dated 1985).

Tests used:
[1] = tested on: Writhing test induced by phenyl-benzoquinone; assay: Phenylbenzoquinone writhing test in the rat; format: in vivo; conditions: Rattus norvegicus, po, 10 min, read-out: % INHIBI-TION
Experimental: (§1) The activity tests were carried out on male Spra gue-Dawley rats weighing 200+20 g and on male Swiss mice weighing 26+3 g.
(§2) The test compounds were administered orally by means of gastroesophageal tube, in the form of a suspen sion in a 10 ml/kg mucilage of 5% gum arabic; and intraperitoneally in the form of an aqueous suspen sion added with a few drops of Tween 80, in the con stant volume of 10 ml/kg.

[2] = tested on: Carrageenin pleuritis; assay: Carrageenin pleuritis in the rat; format: in vivo; conditions: for EXUDATE VOLUME: 30 min. before carrageenin and 6 hours after, exudate at 18 hours, controls 2.76 ± 0.38
Experimental: Compound HA-34 was tested for the protective activity against the exudative pleuritis reaction induced by carrageenin. HA-34 was administered 30 min. before the injection of carrageenin, and 6 hours after it. The experiment was carried out on male Spra- gue-Dawley rats, anestethized with ethyl urethane, which were subjected, in their right pleural cavity, to injection of 1.5 ml of air and then 0.1 ml of a 1% carrageenin solution, in sterile normal saline, according to the procedure by Van Armann et al. (J. Pharmac. Exp. Ther., 150, 328, 1965). Indometha cin and Piroxicam were employed as the control drugs, under the same conditions. 18 Hours after the intrapleuric carrageenin injec tion, the animals were killed by means of ether inhalation, and the pleuric exudate was collected and measured.

[3] = tested on: phenylbenzoquinone writhing test; assay: Phenylbenzoquinone writhing test in the mouse (ED50 and duration of effect); format: in vivo; conditions: for % INHI-BITION / N° OF WRITHES IN 10' ml ± E.S.: Table 6, oral, one hour before the test; for N° OF WRITHES IN 10' ml ± E.S.: controls 52.4 ± 1.69; for % INHIBITION / Nº OF WRITHES IN 10' ml ± E.S.: Table 7, oral 1 mg/kg; for Nº OF WRITHES IN 10' ml ± E.S.: controls 53.2 ± 1.26
Experimental: The analgesic effect was determined by the number of writhes of the abdomen recorded during 10 minutes (from 5 to 15 minutes after the phenylbenzo quinone injection).

[4] = tested on: carrageenin oedema; assay: Antiinflammatory activity: carrageenin oedema in the rat; format: in vivo; conditions: po, 4 h, read-out: OEDEMA INHIBITION % at the fourth hour
Experimental: as §1, §2
The compounds under test and the control ones were administered orally one hour before the injection of 0.1 ml of 1% carrageenin in the right paw of the animals.
The volume of the paw was measured by means of a plethysmograph immediately before the injection and 2, 4 and 6 hours after.
The results were expressed as percentage inhibi tion of the oedema in the treated animals in comparison with the control animals, at the time of the maximum oedema development (fourth hour after the carrageenin injection).

[5] = tested on: gastric ulceration; format: in vivo, rat; conditions: os
Experimental: To rats fasted for 18 hours, with water ad libitum, were administered the compounds under test at "0" time and after 2 hours. Control rats were treated with established anti-inflammatory agents.
6 Hours after the beginning of the test, the animals were killed by ether inhalation.
Gastric ulceration was assessed on the ground of values ranging from 0 to 4: • 0 = no ulceration; • 1 = slight iperhaemia and/or a few ulcers; • 2 = severe iperhaemia and many punctiform ulcers; • 3 = severe submucosal hemorrage, one large ulcer and many punctiform ulcers; • 4 severe submucosal hemorrage and many large ulcers.
The ulcerogenic index was measured by the following formula (Lwoff. J.M., J. Pharmacol., 2, 81, 1971): [formula]

[6] = tested on: acetic acid peritonitis; assay: Anti-exudative activity: acetic acid peritonitis in the rat; format: in vivo; conditions: for EXUDATE VOLUME ml ± E.S.: controls 2.58 ± 0.18
Experimental: The test was carried out according to the procedure described by Arrigoni-Martelli (Boll.Chim. Far. 107, 29, 1968). This method is based upon the evaluation of the anti-exudative effect of a drug at the peritoneal level, following a intraperitoneal injection of 10 ml/kg of a 0.5% acetic acid solution.
The compounds under test were administered oral ly one hour before the inflammatory agent; 30 minutes after the treatment the animals were killed and the fluid from the peritoneal cavity was drawn and measured.
The test compounds were administered by oral route 1 hour before intraperitoneal injection of acetic acid (10 ml/kg of a 0.5% solution).
The anti-exudative activity was determined on the basis of the peritoneal exudate of the treated animals, in comparison with the controls.

[7] = 30 min. before phenylbenzoquinone

COc1ccc2c(c1)c(CC(=O)O)c(C)n2C(=O)c1ccc(Cl)cc1 [INDO, Indomethacin]
inhibition in vivo at 0.5 mg/kg [1]: 49% | inhibition in vivo at 5 mg/kg [1]: 87% | % INHIBITION ([2]; 5 mg/kg): 51.8% | EXUDATE VOLUME ([2]; 5 mg/kg): 1.33 ± 0.34 | % INHIBITION ([2]; 10 mg/kg): 72.4% | EXUDATE VOLUME ([2]; 10 mg/kg): 0.76 ± 0.20 | ED50 ([3]; Mus musculus, po, 1 h): 0.5 mg/kg | % INHI-BITION ([3]; 0.1 mg/kg): 22.9% | N° OF WRITHES IN 10' ml ± E.S. ([3]; 0.1 mg/kg): 40.4 ± 2.46 | % INHI-BITION ([3]; 0.5 mg/kg): 48.1% | N° OF WRITHES IN 10' ml ± E.S. ([3]; 0.5 mg/kg): 27.2 ± 1.48 | % INHI-BITION ([3]; 1 mg/kg): 87.0% | N° OF WRITHES IN 10' ml ± E.S. ([3]; 1 mg/kg): 6.8 ± 0.76 | % INHI-BITION ([3]; 5 mg/kg): 91.4% | N° OF WRITHES IN 10' ml ± E.S. ([3]; 5 mg/kg): 4.5 ± 0.65 | % INHIBITION [3, 7]: 85.5% | Nº OF WRITHES IN 10' ml ± E.S. [3, 7]: 7.7 ± 1.18 | % INHIBITION ([3]; 1 h before phenylbenzoquinone): 87.8% | Nº OF WRITHES IN 10' ml ± E.S. ([3]; 1 h before phenylbenzoquinone): 6.5 ± 0.86 | % INHIBITION ([3]; 3 h before phenylbenzoquinone): 88.3% | Nº OF WRITHES IN 10' ml ± E.S. ([3]; 3 h before phenylbenzoquinone): 6.2 ± 0.70 | % INHIBITION ([3]; 4 h before phenylbenzoquinone): 87.2% | Nº OF WRITHES IN 10' ml ± E.S. ([3]; 4 h before phenylbenzoquinone): 6.8 ± 0.64 | % INHIBITION ([3]; 6 h before phenylbenzoquinone): 80.4% | Nº OF WRITHES IN 10' ml ± E.S. ([3]; 6 h before phenylbenzoquinone): 10.4 ± 0.56 | % INHIBITION ([3]; 8 h before phenylbenzoquinone): 60.3% | Nº OF WRITHES IN 10' ml ± E.S. ([3]; 8 h before phenylbenzoquinone): 21.2 ± 1.26 | % INHIBITION ([3]; 24 h before phenylbenzoquinone): 53.4% | Nº OF WRITHES IN 10' ml ± E.S. ([3]; 24 h before phenylbenzoquinone): 24.8 ± 1.15 | % INHIBITION ([3]; 32 h before phenylbenzoquinone): 25.9% | Nº OF WRITHES IN 10' ml ± E.S. ([3]; 32 h before phenylbenzoquinone): 39.4 ± 1.36 | inhibition in vivo at 10 mg/kg [4]: 57.3 ± 0.85% | ULCERA-TION INDEX [5]: 250 | % ANIMALS WITH ULCERS ([5]; 20 mg/kg): 100% | ULCERA-TION DEGREE ([5]; 20 mg/kg, scale 0 to 4): 2.5 | inhibition in vivo at 1 mg/kg ([6]; Rattus norvegicus, po, Table 4, os, 1 mg/kg): 74% | inhibition in vivo at 10 mg/kg ([6]; Rattus norvegicus, po, Table 4, os, 10 mg/kg): 93% | inhibition in vivo at 0.1 mg/kg ([6]; Rattus norvegicus, po, Table 8, oral, 0.1 mg/kg): 37.2% | inhibition in vivo at 0.5 mg/kg ([6]; Rattus norvegicus, po, Table 8, oral, 0.5 mg/kg): 53% | inhibition in vivo at 1 mg/kg ([6]; Rattus norvegicus, po, Table 8, oral, 1 mg/kg): 72.8% | inhibition in vivo at 10 mg/kg ([6]; Rattus norvegicus, po, Table 8, oral, 10 mg/kg): 94.8% | ED50 ([6]; Rattus norvegicus, oral administration 1 hour before i.p. acetic acid): 0.3 mg/kg | EXUDATE VOLUME ml ± E.S. ([6]; Table 8, oral, 0.1 mg/kg, 1 hour before acetic acid): 1.62 ± 0.09 mL | EXUDATE VOLUME ml ± E.S. ([6]; Table 8, oral, 0.5 mg/kg): 1.21 ± 0.07 mL | EXUDATE VOLUME ml ± E.S. ([6]; Table 8, oral, 1 mg/kg): 0.70 ± 0.09 mL | EXUDATE VOLUME ml ± E.S. ([6]; Table 8, oral, 10 mg/kg): 0.13 ± 0.04 mL
